Test results from PubChem BioAssay AID1963827 (Molecular Pharmacology Branch, DTP, NCI, 2024).

Tested on: 994946-033-R-J1-PDC complex spheroid viability
Test: Anticancer human tumor 994946-033-R-J1-PDC patient-derived melanoma cell line growth inhibition [POLQ]
Details: for IC50: curve of first compound; for viability, T/C: stronger effect = lower value
Procedure, shortened: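 PDC + HUVEC + MSC complex spheroids; POLQ inhibitors ± partner drugs; top conc. at/near clinical Cmax, else 10 microM (SN-38 1 microM), half-log dilutions; 37 degrees C, 5% CO2.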

[1] = second compound 0.0316 µM, first compound 0.0316 µM
[2] = second compound 0.0316 µM, first compound 0.1 µM
[3] = second compound 0.0316 µM, first compound 0.316 µM
[4] = second compound 0.0316 µM, first compound 1 µM
[5] = second compound 0.0316 µM, first compound 3.16 µM
[6] = second compound 0.0316 µM, first compound 10 µM
[7] = second compound 0.1 µM, first compound 0.0316 µM
[8] = second compound 0.1 µM, first compound 0.1 µM
[9] = second compound 0.1 µM, first compound 0.316 µM
[10] = second compound 0.1 µM, first compound 1 µM
[11] = second compound 0.1 µM, first compound 3.16 µM
[12] = second compound 0.1 µM, first compound 10 µM
[13] = second compound 0.316 µM, first compound 0.0316 µM
[14] = second compound 0.316 µM, first compound 0.1 µM
[15] = second compound 0.316 µM, first compound 0.316 µM
[16] = second compound 0.316 µM, first compound 1 µM
[17] = second compound 0.316 µM, first compound 3.16 µM
[18] = second compound 0.316 µM, first compound 10 µM
[19] = second compound 1 µM, first compound 0.0316 µM
[20] = second compound 1 µM, first compound 0.1 µM
[21] = second compound 1 µM, first compound 0.316 µM
[22] = second compound 1 µM, first compound 1 µM
[23] = second compound 1 µM, first compound 3.16 µM
[24] = second compound 1 µM, first compound 10 µM
[25] = second compound 3.16 µM, first compound 0.0316 µM
[26] = second compound 3.16 µM, first compound 0.1 µM
[27] = second compound 3.16 µM, first compound 0.316 µM
[28] = second compound 3.16 µM, first compound 1 µM
[29] = second compound 3.16 µM, first compound 3.16 µM
[30] = second compound 3.16 µM, first compound 10 µM
[31] = second compound 10 µM, first compound 0.0316 µM
[32] = second compound 10 µM, first compound 0.1 µM
[33] = second compound 10 µM, first compound 0.316 µM
[34] = second compound 10 µM, first compound 1 µM
[35] = second compound 10 µM, first compound 3.16 µM
[36] = second compound 10 µM, first compound 10 µM
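Also: spheroids exposed to drugs for 7 days.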
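For viability, T/C in this document: 100% = DMSO vehicle treated spheroids.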

C#Cc1c(F)ccc2cc(O)cc(-c3ncc4c(N5CC6CCC(C5)N6)nc(OCC56CCCN5CC(F)C6)nc4c3F)c12 (stereo not given) + Cc1cccc(N(C)C(=O)C2C(O)CCN2c2nc(C)cc(C(F)(F)F)c2C#N)c1
IC50 (second compound 0.0316 µM): 5.05 µM
IC50 (second compound 0.1 µM): 7.26 µM
IC50 (second compound 0.316 µM): 4.35 µM
IC50 (second compound 1 µM): 5.27 µM
IC50 (second compound 3.16 µM): 4.78 µM
IC50 (second compound 10 µM): 5.91 µM
viability, T/C [1]: 97.6%
viability, T/C [2]: 103%
viability, T/C [3]: 101%
viability, T/C [4]: 93.8%
viability, T/C [5]: 76.5%
viability, T/C [6]: 12%
viability, T/C [7]: 77%
viability, T/C [8]: 112%
viability, T/C [9]: 101%
viability, T/C [10]: 106%
viability, T/C [11]: 103%
viability, T/C [12]: 30.7%
viability, T/C [13]: 119%
viability, T/C [14]: 102%
viability, T/C [15]: 114%
viability, T/C [16]: 82%
viability, T/C [17]: 64.7%
viability, T/C [18]: 18.1%
viability, T/C [19]: 121%
viability, T/C [20]: 99.5%
viability, T/C [21]: 105%
viability, T/C [22]: 107%
viability, T/C [23]: 82.7%
viability, T/C [24]: 9.05%
viability, T/C [25]: 106%
viability, T/C [26]: 95.3%
viability, T/C [27]: 79.1%
viability, T/C [28]: 82.8%
viability, T/C [29]: 78.3%
viability, T/C [30]: 5.59%
viability, T/C [31]: 111%
viability, T/C [32]: 104%
viability, T/C [33]: 97.7%
viability, T/C [34]: 95.9%
viability, T/C [35]: 114%
viability, T/C [36]: 4.03%

C=CC(=O)N1CCN(c2nc(=O)n(-c3c(C)ccnc3C(C)C)c3nc(-c4c(O)cccc4F)c(F)cc23)C(C)C1 (stereo not given) + Cc1cccc(N(C)C(=O)C2C(O)CCN2c2nc(C)cc(C(F)(F)F)c2C#N)c1
IC50 (second compound 0.0316 µM): > 10 µM
IC50 (second compound 0.1 µM): > 10 µM
IC50 (second compound 0.316 µM): > 10 µM
IC50 (second compound 1 µM): > 10 µM
IC50 (second compound 3.16 µM): > 10 µM
IC50 (second compound 10 µM): > 10 µM
viability, T/C [1]: 75.8%
viability, T/C [2]: 101%
viability, T/C [3]: 112%
viability, T/C [4]: 126%
viability, T/C [5]: 110%
viability, T/C [6]: 132%
viability, T/C [7]: 94.5%
viability, T/C [8]: 118%
viability, T/C [9]: 129%
viability, T/C [10]: 123%
viability, T/C [11]: 119%
viability, T/C [12]: 113%
viability, T/C [13]: 115%
viability, T/C [14]: 114%
viability, T/C [15]: 94.2%
viability, T/C [16]: 140%
viability, T/C [17]: 123%
viability, T/C [18]: 93.8%
viability, T/C [19]: 113%
viability, T/C [20]: 109%
viability, T/C [21]: 91.1%
viability, T/C [22]: 107%
viability, T/C [23]: 90.2%
viability, T/C [24]: 93.9%
viability, T/C [25]: 130%
viability, T/C [26]: 104%
viability, T/C [27]: 132%
viability, T/C [28]: 119%
viability, T/C [29]: 105%
viability, T/C [30]: 129%
viability, T/C [31]: 84.7%
viability, T/C [32]: 101%
viability, T/C [33]: 105%
viability, T/C [34]: 115%
viability, T/C [35]: 96.3%
viability, T/C [36]: 106%

CC(C)n1c(=O)n(C)c2cnc3cc(F)c(-c4ccc(OCCCN5CCCCC5)nc4)cc3c21 + Cc1cccc(N(C)C(=O)C2C(O)CCN2c2nc(C)cc(C(F)(F)F)c2C#N)c1
IC50 (second compound 0.0316 µM): 6.24 µM
IC50 (second compound 0.1 µM): 4.69 µM
IC50 (second compound 0.316 µM): 5.46 µM
IC50 (second compound 1 µM): 5.62 µM
IC50 (second compound 3.16 µM): 6.62 µM
IC50 (second compound 10 µM): 4.14 µM
viability, T/C [1]: 97.3%
viability, T/C [2]: 97.6%
viability, T/C [3]: 87.2%
viability, T/C [4]: 74.2%
viability, T/C [5]: 71.4%
viability, T/C [6]: 37.8%
viability, T/C [7]: 92.1%
viability, T/C [8]: 67.6%
viability, T/C [9]: 75.8%
viability, T/C [10]: 62.5%
viability, T/C [11]: 69.3%
viability, T/C [12]: 23.8%
viability, T/C [13]: 82.5%
viability, T/C [14]: 117%
viability, T/C [15]: 87.9%
viability, T/C [16]: 93.6%
viability, T/C [17]: 84.5%
viability, T/C [18]: 11.8%
viability, T/C [19]: 97%
viability, T/C [20]: 81%
viability, T/C [21]: 94%
viability, T/C [22]: 93.6%
viability, T/C [23]: 83.5%
viability, T/C [24]: 16.3%
viability, T/C [25]: 94.8%
viability, T/C [26]: 62.2%
viability, T/C [27]: 94.4%
viability, T/C [28]: 90.7%
viability, T/C [29]: 92%
viability, T/C [30]: 29.4%
viability, T/C [31]: 109%
viability, T/C [32]: 92.6%
viability, T/C [33]: 93.2%
viability, T/C [34]: 74.7%
viability, T/C [35]: 63.2%
viability, T/C [36]: 22.3%

CC1COCCN1c1cc(C2(O)CC3CCC(C2)O3)c2cnn(-c3ccn[nH]3)c2n1 (stereo not given) + Cc1cccc(N(C)C(=O)C2C(O)CCN2c2nc(C)cc(C(F)(F)F)c2C#N)c1
IC50 (second compound 0.0316 µM): < 0.0316 µM
IC50 (second compound 0.1 µM): 0.0379 µM
IC50 (second compound 0.316 µM): < 0.0316 µM
IC50 (second compound 1 µM): < 0.0316 µM
IC50 (second compound 3.16 µM): 0.0333 µM
IC50 (second compound 10 µM): < 0.0316 µM
viability, T/C [1]: 49.5%
viability, T/C [2]: 34.5%
viability, T/C [3]: 14.3%
viability, T/C [4]: 15.3%
viability, T/C [5]: 14.6%
viability, T/C [6]: 5.33%
viability, T/C [7]: 52.7%
viability, T/C [8]: 37%
viability, T/C [9]: 18.8%
viability, T/C [10]: 12.3%
viability, T/C [11]: 12%
viability, T/C [12]: 4%
viability, T/C [13]: 46.8%
viability, T/C [14]: 26.4%
viability, T/C [15]: 14.6%
viability, T/C [16]: 18.4%
viability, T/C [17]: 12.7%
viability, T/C [18]: 2.62%
viability, T/C [19]: 42%
viability, T/C [20]: 23.1%
viability, T/C [21]: 20.9%
viability, T/C [22]: 17%
viability, T/C [23]: 12.5%
viability, T/C [24]: 3.16%
viability, T/C [25]: 51.6%
viability, T/C [26]: 27.2%
viability, T/C [27]: 23.2%
viability, T/C [28]: 13.5%
viability, T/C [29]: 12.7%
viability, T/C [30]: 10.9%
viability, T/C [31]: 47.1%
viability, T/C [32]: 38.4%
viability, T/C [33]: 18.7%
viability, T/C [34]: 23%
viability, T/C [35]: 9.14%
viability, T/C [36]: 5.05%

CCc1cc2c(N3CCc4c(cc(Cn5ccnc5)cc4-c4cn(C)nc4C(F)(F)F)C3=O)cc(C)nc2c(OC)n1 + Cc1cccc(N(C)C(=O)C2C(O)CCN2c2nc(C)cc(C(F)(F)F)c2C#N)c1
IC50 (second compound 0.0316 µM): > 10 µM
IC50 (second compound 0.1 µM): > 10 µM
IC50 (second compound 0.316 µM): > 10 µM
IC50 (second compound 1 µM): 6.22 µM
IC50 (second compound 3.16 µM): > 10 µM
IC50 (second compound 10 µM): > 10 µM
viability, T/C [1]: 74.7%
viability, T/C [2]: 61.9%
viability, T/C [3]: 94.6%
viability, T/C [4]: 79.2%
viability, T/C [5]: 68.4%
viability, T/C [6]: 69.9%
viability, T/C [7]: 73%
viability, T/C [8]: 84.7%
viability, T/C [9]: 90.7%
viability, T/C [10]: 88.8%
viability, T/C [11]: 90.5%
viability, T/C [12]: 77.6%
viability, T/C [13]: 63%
viability, T/C [14]: 78.5%
viability, T/C [15]: 60.2%
viability, T/C [16]: 66.5%
viability, T/C [17]: 61.3%
viability, T/C [18]: 53.1%
viability, T/C [19]: 106%
viability, T/C [20]: 76.1%
viability, T/C [21]: 78.8%
viability, T/C [22]: 81.4%
viability, T/C [23]: 69.6%
viability, T/C [24]: 38%
viability, T/C [25]: 76.5%
viability, T/C [26]: 83.3%
viability, T/C [27]: 60.4%
viability, T/C [28]: 74.3%
viability, T/C [29]: 66.8%
viability, T/C [30]: 67.6%
viability, T/C [31]: 76%
viability, T/C [32]: 73.2%
viability, T/C [33]: 68.1%
viability, T/C [34]: 89.2%
viability, T/C [35]: 73.8%
viability, T/C [36]: 64.1%
